“And” between values parts separate entries of the source, which are not always exact repeats. Equal values may be shown once.
Experiments:
Anti-OVA antibody titers = experiment: Adjuvant activity, anti-OVA antibody titers by ELISA (Example 8); assay type: in vivo, Balb/c mice; conditions: for Anti-protein antibody titer (pooled sera) / Stimulation index / Anti-protein antibody titer (for individual sera): Table 7
Procedure: Adjuvant activity was tested on 11 groups of Balb/c mice (obtained from Stolbovaya Breeding Station). Each group consisted of 7 animals. Three immunizations were performed as follows:
• Group 1—ovalbumin 25 micrograms per animal (Mouse Nos. 1 to 7) • Group 2—ovalbumin 25 micrograms per animal+CFA (Complete Freund's adjuvant) (Mouse Nos. 8 to 14) • Group 3—ovalbumin 25 micrograms per animal+adjuvant of compound 33a 100 micrograms per animal (Mouse Nos. 15 to 21) • Group 4—ovalbumin 25 micrograms per animal+adjuvant of compound 33a 10 micrograms per animal (Mouse Nos. […]) • Group 5—ovalbumin 25 micrograms per animal+adjuvant of compound 33a 1 microgram per animal (Mouse Nos. […]) • Group 6—ovalbumin 25 micrograms per animal+adjuvant of compound 33b 100 micrograms per animal (No. 36 to 42) • Group 7—ovalbumin 25 micrograms per animal+adjuvant of compound 33b 10 micrograms per animal (Mouse Nos. 43 to 49) • Group 8—ovalbumin 25 micrograms per animal+adjuvant of compound 33b 1 microgram per animal (Mouse Nos. 50 to 56) • Group 9—ovalbumin 25 micrograms per animal+adjuvant of compound 17 100 micrograms per animal (Mouse Nos. 57 to 63) • Group 10—ovalbumin 25 micrograms per animal+adjuvant of compound 1710 micrograms per animal (Mouse Nos. 64 to 70) • Group 11—ovalbumin 25 micrograms per animal+adjuvant of compound 171 microgram per animal (Mouse Nos. 71 to 77) Second Immunization:
The same set 14 days after first immunization by injection of 12.5 micrograms of ovalbumin/mouse to mouse nos. 1 to 77.
The same set 28 days after first immunization by injection of 12.5 micrograms of ovalbumin/mouse to mouse nos. 1 to 77.
On day 35 after first immunization, blood samples from each mouse were collected.
OVA (10 micrograms/ml) solution in 0.05 M sodium carbonate buffer (pH 9.5) was added to plate wells, 0.1 ml per well and incubated at 4° C. for 16 hours. The OVA solution was then removed and the plate was washed 4 times with PBS containing 0.05% Tween-20. Such washing was performed after each incubation stage. Serial twofold dilutions of sera (starting from 1:100 or 1:1000) were added to the wells, 0.1 ml per well and incubated at 37° C. for 1 hour followed by incubation (1 hour, 37° C.) with HRP-conjugated goat anti-mouse IgG antibodies (0.1 ml, 1 mg/ml in PBS) and then with a 0.1 mL substrate solution −0.05% H2O2 and 0.05% o-phenylene diamine in 0.05M sodium citrate buffer with a pH of 4.5. The reaction was stopped by adding 100 μl of 12.5% H2SO4. Absorbance was measured at a wavelength of 492 nm using a Multiscan Plus MKII (Flow Laboratories, Great Britain). Significant anti-protein antibody titer (for individual sera) was assessed as the serum dilution produced an absorbance value of more than 0.1 ODU and the minimum exceeds three times the control level. The antibody titer was presented and −log of dilution (FIGS. 2 and 3). The stimulation index for pooled sera was calculated by dividing the test pooled sera dilution producing OD=1 by the dilution of pooled sera from mice immunized without the adjuvant, producing OD=1. The results of the adjuvant activities of cyclo-L-Ala-L-Glu-(L-Trp-OH) (Compound 17), cyclo-L-Lys(N-acetyl-Glycosamine-N-acetyl-muramil)-L-Glu-(L-Trp-OH) (Compound 33a) and cyclo-D-Lys(N-acetyl-Glycosamine-N-acetyl-muramil)-D-Glu-(L-Trp-OH) (Compound 33b) are shown in Table 7 and the adjuvant activities of cyclo [L-Lys(Palmitoyil)-L-Glu(D-Trp-OH)] (Compound 26a) and cyclo [D-Lys(Palmitoyil)-D-Glu(D-Trp-OH)] (Compound 26b) are shown in Table 8 as well as in FIG. 4 which includes the results of the adjuvant activities of cyclo-L-Lys-L-Glu-(L-Trp-OH) (compound 19). It is noted that the peptides of compounds 26a and 26b are soluble in 0.1% NH4OH at a concentration of 1 mg per 1 to 2 ml.

[1] = tested on: CFU-S population in the bone marrow; experiment: Spleen colony formation (CFU-S) by bone marrow cells of peptide-treated intact donor mice; assay type: in vivo, (CBA×C57 B1) F1 mice; conditions: for Colony count CFU-8 - S per 10^5 cells M ± M: control 11.2 ± 0.4; for Colony count CFU-8 - S per 10^5 cells M ± m: control 9.9 ± 0.7
Procedure: The effect of tested substances on intact bone marrow was studied in vivo. […] Two days after administration of preparation, the mice were killed. Bone marrow suspension was prepared and injected intravenously to lethally irradiated mice. The colony forming activity was evaluated at day 8. Test animals were (CBA×C57 B1) F1 mice (30 mice per trial, average from 3 tests).

[2] = 100 μg per animal, no adjuvant 4.5
[3] = 100 μg per animal, no adjuvant = 1
[4] = OVA + adjuvant 1 μg per animal, −log of dilution
[5] = OVA + adjuvant 10 μg per animal, −log of dilution
[6] = OVA + adjuvant 100 μg per animal, titer as −log of dilution, one value per mouse
[7] = Table 3, 0.2 microgram per mouse per os
[8] = Table 2, donor treated i/p, colonies day 8
[9] = Table 3, 0.2 microgram per mouse i/p
[10] = Table 3, 2.0 microgram per mouse per os
[11] = Table 3, 20.0 microgram per mouse per os
[12] = Table 3, 200.0 microgram per mouse per os

CC(=O)N[C@H]1[C@H](O[C@H]2[C@H](O[C@H](C)C(=O)NCCCC[C@@H]3NC(=O)[C@H](CCC(=O)N[C@@H](Cc4c[nH]c5ccccc45)C(=O)O)NC3=O)[C@@H](NC(C)=O)C(O)O[C@@H]2CO)O[C@H](CO)[C@@H](O)[C@@H]1O (stereo partly drawn) [Compound 33a, cyclo-L-Lys(N-acetyl-Glycosamine-N-acetyl-muramil)-L-Glu-(L-Trp-OH)]
adjuvant activity (FIG. 4), doses at which active (Anti-OVA antibody titers): active at 100 μg/kg | Anti-protein antibody titer (pooled sera) (Anti-OVA antibody titers; 1 μg per animal): 4.8 | Stimulation index (Anti-OVA antibody titers; 1 μg per animal): 2.9 | Anti-protein antibody titer (pooled sera) (Anti-OVA antibody titers; 10 μg per animal): 5.1 | Stimulation index (Anti-OVA antibody titers; 10 μg per animal): 3.5 | Anti-protein antibody titer (pooled sera) (Anti-OVA antibody titers; [2]): 5.5 | Stimulation index (Anti-OVA antibody titers; [3]): 6.8 | Anti-protein antibody titer (for individual sera) (Anti-OVA antibody titers; [4]): 5.1 (2×) and 4.2 and 5.4 (3×) and 4.1 | Anti-protein antibody titer (for individual sera) (Anti-OVA antibody titers; [5]): 4.4 and 5.7 (4×) and 4.7 and 5.4 | Anti-protein antibody titer (for individual sera) (Anti-OVA antibody titers; [6]): 4.8 (2×) and 5.4 and 5.1 (2×) and 6.4 and 5.7

C[C@H]1NC(=O)[C@@H](CC(=O)N[C@H](Cc2c[nH]c3ccccc23)C(=O)O)NC1=O [Compound 13, Cyclo-D-Ala-D-Asp-(D-Trp-OH)]
% suppression ([1]; Table 2, donor treated per os): 26.5% | Colony count CFU-8 - S per 10^5 cells M ± M ([1]; Table 2, donor treated per os): 9.0 ± 0.2 per 10^5 cells

CC(=O)N[C@H]1[C@H](O[C@H]2[C@H](O[C@H](C)C(=O)NCCCC[C@H]3NC(=O)[C@@H](CCC(=O)N[C@@H](Cc4c[nH]c5ccccc45)C(=O)O)NC3=O)[C@@H](NC(C)=O)C(O)O[C@@H]2CO)O[C@H](CO)[C@@H](O)[C@@H]1O (stereo partly drawn) [Compound 33b, cyclo-D-Lys(N-acetyl-Glycosamine-N-acetyl-muramil)-D-Glu-(L-Trp-OH)]
adjuvant activity (FIG. 4), doses at which active (Anti-OVA antibody titers): not an active compound | Anti-protein antibody titer (pooled sera) (Anti-OVA antibody titers; 1 μg per animal): 5.1 | Stimulation index (Anti-OVA antibody titers; 1 μg per animal): 3.5 | Anti-protein antibody titer (pooled sera) (Anti-OVA antibody titers; 10 μg per animal): 5.4 | Stimulation index (Anti-OVA antibody titers; 10 μg per animal): 4.1 | Anti-protein antibody titer (pooled sera) (Anti-OVA antibody titers; [2]): 4.8 | Stimulation index (Anti-OVA antibody titers; [3]): 2.9 | Anti-protein antibody titer (for individual sera) (Anti-OVA antibody titers; [4]): 5.2 and 4.8 (4×) and 4.5 and 5.1 | Anti-protein antibody titer (for individual sera) (Anti-OVA antibody titers; [5]): 4.8 and 4.5 and 5.2 and 5.1 and 5.4 (2×) and 4.3 | Anti-protein antibody titer (for individual sera) (Anti-OVA antibody titers; [6]): 4.8 and 5.4 (3×) and 4.2 and 5.1 (2×)

COC(=O)[C@@H](Cc1c[nH]c2ccccc12)NC(=O)CC[C@H]1NC(=O)[C@@H](C)NC1=O [Compound 1, Cyclo-D-Ala-D-Glu-(D-Trp-OMe)]
% suppression ([1]; Table 2, donor treated per os): 40% | Colony count CFU-8 - S per 10^5 cells M ± M ([1]; Table 2, donor treated per os): 7.4 ± 0.4 per 10^5 cells | % suppression ([1]; Table 2, donor treated s/c): 47% | Colony count CFU-8 - S per 10^5 cells M ± M ([1]; Table 2, donor treated s/c): 6.8 ± 0.4 per 10^5 cells | % suppression [1, 7]: 42% | Colony count CFU-8 - S per 10^5 cells M ± m [1, 7]: 6.5 ± 0.5 per 10^5 cells

O=C(CCC1NC(=O)C(Cc2ccc(O)cc2)NC1=O)NC(Cc1c[nH]c2ccccc12)C(=O)O (centres unmarked) [cyclo-DTyr-DGlu-(DTrp-OH)]
% suppression ([1]; Table 2, donor treated per os): 44% | Colony count CFU-8 - S per 10^5 cells M ± M ([1]; Table 2, donor treated per os): 6.3 ± 0.9 per 10^5 cells

COC(=O)[C@@H](Cc1c[nH]c2ccccc12)NC(=O)C[C@H]1NC(=O)[C@@H](C)NC1=O [Compound 12, Cyclo-D-Ala-D-Asp-(D-Trp-OMe)]
% suppression [1, 7]: 28% | Colony count CFU-8 - S per 10^5 cells M ± m [1, 7]: 8.4 ± 0.6 per 10^5 cells

CC1NC(=O)C(CC(=O)NC(Cc2c[nH]c3ccccc23)C(=O)[O-])NC1=O.[Na+] (centres unmarked) [cyclo-DAla-DAsp-(DTrp-ONa)]
% suppression [1, 7]: 55% | Colony count CFU-8 - S per 10^5 cells M ± m [1, 7]: 6.8 ± 0.8 per 10^5 cells

CC1NC(=O)C(CCC(=O)NC(Cc2c[nH]c3ccccc23)C(=O)[O-])NC1=O.[Na+] (centres unmarked) [cyclo-LAla-LGlu-(DTrp-ONa)]
% suppression ([1]; Table 2, donor treated i/p): 20% | Colony count CFU-8 - S per 10^5 cells M ± M [1, 8]: 8.8 ± 0.2 per 10^5 cells

O=C(CC[C@H]1NC(=O)[C@@H](Cc2ccccc2)NC1=O)N[C@H](Cc1c[nH]c2ccccc12)C(=O)[O-].[Na+] [cyclo-DPhe-DGlu-(DTrp-ONa)]
% suppression ([1]; Table 2, donor treated per os): 28% | Colony count CFU-8 - S per 10^5 cells M ± M ([1]; Table 2, donor treated per os): 8.1 ± 0.4 per 10^5 cells | % suppression [1, 7]: 28% | Colony count CFU-8 - S per 10^5 cells M ± m [1, 7]: 8.1 ± 0.4 per 10^5 cells

C[C@H]1NC(=O)[C@@H](CCC(=O)N[C@H](Cc2c[nH]c3ccccc23)C(=O)[O-])NC1=O.[Na+] [cyclo-DAla-DGlu-(DTrp-ONa)]
% suppression ([1]; Table 2, donor treated i/p): 70% | Colony count CFU-8 - S per 10^5 cells M ± M [1, 8]: 5.0 ± 0.3 per 10^5 cells | % suppression ([1]; Table 2, donor treated per os): 58% | Colony count CFU-8 - S per 10^5 cells M ± M ([1]; Table 2, donor treated per os): 6.0 ± 0.7 per 10^5 cells | % suppression [1, 7]: 59% | Colony count CFU-8 - S per 10^5 cells M ± m [1, 7]: 5.3 ± 0.6 per 10^5 cells

γDGlu-DTrp [Thymodepressin, reference compound]
% suppression ([1]; Table 2, donor treated i/p): 55% | Colony count CFU-8 - S per 10^5 cells M ± M [1, 8]: 6.3 ± 0.6 per 10^5 cells | % suppression [1, 9]: 51% | Colony count CFU-8 - S per 10^5 cells M ± m [1, 9]: 5.7 ± 0.4 per 10^5 cells | % suppression [1, 7]: 0% | Colony count CFU-8 - S per 10^5 cells M ± m [1, 7]: 10.2 ± 0.3 per 10^5 cells | % suppression [1, 10]: 33% | Colony count CFU-8 - S per 10^5 cells M ± m [1, 10]: 8.0 ± 0.5 per 10^5 cells | % suppression [1, 11]: 41% | Colony count CFU-8 - S per 10^5 cells M ± m [1, 11]: 6.4 ± 0.5 per 10^5 cells | % suppression [1, 12]: 52% | Colony count CFU-8 - S per 10^5 cells M ± m [1, 12]: 5.1 ± 0.2 per 10^5 cells | effect on CFU-S population in the bone marrow of intact mice ([1]; text statement on Table 2): decreased the CFU-S population in the bone marrow

O=C(CCC1NC(=O)C(Cc2ccc(O)cc2)NC1=O)NC(Cc1c[nH]c2ccccc12)C(=O)[O-].[Na+] (centres unmarked) [cyclo-DTyr-DGlu-(DTrp-ONa)]
% suppression [1, 7]: 44% | Colony count CFU-8 - S per 10^5 cells M ± m [1, 7]: 6.3 ± 0.9 per 10^5 cells

NCCCCC1NC(=O)C(CCC(=O)NC(Cc2c[nH]c3ccccc23)C(=O)O)NC1=O [Compound 19, cyclo-L-Lys-L-Glu-(L-Trp-OH)]
adjuvant activity (FIG. 4), doses at which active (Anti-OVA antibody titers): active at 100 μg/kg

Source: patent publication US8637521B2, “Substituted piperazin-2,5-diones and their use as multifunctional bioactive compounds” (priority 2006, dated 2014)
